Test results reported in US11932637B2, “Chromane amidine monobactam compounds for the treatment of bacterial infections” (priority 2021, dated 2024).

Experiments:
Type in all cases: cell-based
[1] = system: Pseudomonas aeruginosa expressing AmpC (CL5701); test: Antibiotic activity: growth inhibitory concentration (OD600), P. aeruginosa CL5701; conditions: concentration inhibiting 95% of bacterial growth, with BLi Relebactam 4 μg/mL, 22 hours
Experimental: (§1) Biological Assays Antibiotic Activity: Determination of Growth Inhibitory Concentration The concentrations of compounds required to inhibit the growth of various strains of bacteria were determined in an assay that assessed bacterial growth by measuring optical density at 600 nm (OD600). The bacterial strains tested included the clinical strains Escherichia coli expressing NDM-1 (CLB30016), Klebsiella pneumoniae expressing KPC-1 (CL6569), Acinetobacter baumannii expressing TEM-1, AmpC, and Oxa-24/40 (CL6188) and Pseudomonas aeruginosa expressing AmpC (CL5701). All compounds were tested in the presence of a β lactamase inhibitor (BLi, Relebactam) in 384-well microplates.
(§2) The clinical strains were stored as frozen single use stocks, thawed and diluted into 1.1× cation-adjusted Mueller-Hinton II broth to achieve approximately 2×10^5 CFU/mL. Test compounds were dissolved in DMSO and diluted 1:50 in the assay, resulting in a final concentration range of 100 μM to 0.098 μM. On the day of the assay, 1 μL of test compound was added to the plate followed by 4 μL of 50 μg/mL BLi in MOPS buffer and 45 μL of diluted bacteria. Plates were centrifuged at 1000 rpm for 30 seconds, shaken at approximately 800 rpm for 1 minute, and incubated at 35 t 2° C. for 22 hours. The concentration of BLi used in the assay was 4 μg/mL. At the end of the incubation, absorbance at 600 nm was determined using a spectrophotometer. Inhibition was quantitated by identifying the lowest concentration of test compound that was required to inhibit 95% of the growth of the bacteria.

[2] = system: Acinetobacter baumannii expressing TEM-1, AmpC, and Oxa-24/40 (CL6188); conditions: concentration inhibiting 95% of bacterial growth; with BLi Relebactam 4 μg/mL; 22 hours; OD600
Experimental: as §1, §2

[3] = system: Escherichia coli expressing NDM-1 (CLB30016); test: Antibiotic activity: growth inhibitory concentration (OD600), E. coli CLB30016; conditions: concentration inhibiting 95% of bacterial growth, with BLi Relebactam 4 μg/mL, 22 hours
Experimental: as §1, §2

Compound | PA_CL5701 MITC95 [1] [µM] | AB_CL6188 MITC95 [2] [µM] | EC_CLB30016 MITC95 [3] [µM]
CC1(C)[C@H](NC(=O)/C(=N\O[C@](C)(C(=O)O)[C@H]2CCc3cc(C(=N)N[C@H]4C[C@@H](N)C4)ccc3O2)c2csc(N)n2)C(=O)N1OS(=O)(=O)O [Compound 7, (S)-2-((R)-6-(N-((1 s,3S)-3-aminocyclobutyl)carbamimidoyl)chroman-2-yl)-2-((((Z)-1-(2-aminothiazol-4-yl)-2-(((S)-2,2-dimethyl-4-oxo-1-(sulfooxy)azetidin-3-yl)amino)-2-oxoethylidene)amino)oxy)propanoic acid] | 1.563 |  | 
CC1(C)[C@H](NC(=O)/C(=N\O[C@](C)(C(=O)O)[C@H]2CCc3cc(C(=N)N[C@H]4C[C@]5(CCNC5)C4)ccc3O2)c2csc(N)n2)C(=O)N1OS(=O)(=O)O [Compound 22, (S)-2-((R)-6-(N-((2r,4S)-6-azaspiro[3.4]octan-2-yl)carbamimidoyl)chroman-2-yl)-2-((((Z)-1-(2-aminothiazol-4-yl)-2-(((S)-2,2-dimethyl-4-oxo-1-(sulfooxy)azetidin-3-yl)amino)-2-oxoethylidene)amino)oxy)propanoic acid] | 1.563 |  | 
CC1(C)[C@H](NC(=O)/C(=N\O[C@](C)(C(=O)O)[C@H]2CCc3cc(C(=N)N[C@H]4C[C@@]5(CCNC5)C4)ccc3O2)c2csc(N)n2)C(=O)N1OS(=O)(=O)O [Compound 23, (S)-2-((R)-6-(N-((2s,4R)-6-azaspiro[3.4]octan-2-yl)carbamimidoyl)chroman-2-yl)-2-((((Z)-1-(2-aminothiazol-4-yl)-2-(((S)-2,2-dimethyl-4-oxo-1-(sulfooxy)azetidin-3-yl)amino)-2-oxoethylidene)amino)oxy)propanoic acid] | 3.125 | 6.25 | 6.25
CC1(C)[C@H](NC(=O)/C(=N\O[C@](C)(C(=O)O)[C@H]2CCc3cc(C(=N)NC4CC(N)(C[C@H](O)CO)C4)ccc3O2)c2csc(N)n2)C(=O)N1OS(=O)(=O)O (stereo partly drawn) [Compound 94, (S)-2-((R)-6-(N-((1S,3R)-3-amino-3-((S)-2,3-dihydroxypropyl)cyclobutyl)carbamimidoyl)chroman-2-yl)-2-((((Z)-1-(2-aminothiazol-4-yl)-2-(((S)-2,2-dimethyl-4-oxo-1-(sulfooxy)azetidin-3-yl)amino)-2-oxoethylidene)amino)oxy)propanoic acid] | 1.563 | 6.25 | 
CC1(C)[C@H](NC(=O)/C(=N\O[C@](C)(C(=O)O)[C@H]2CCc3cc(C(=N)N[C@H]4C[C@@](N)(C[C@@H](O)CO)C4)ccc3O2)c2csc(N)n2)C(=O)N1OS(=O)(=O)O [Compound 95, (S)-2-((R)-6-(N-((1R,3R)-3-amino-3-((R)-2,3-dihydroxypropyl)cyclobutyl)carbamimidoyl)chroman-2-yl)-2-((((Z)-1-(2-aminothiazol-4-yl)-2-(((S)-2,2-dimethyl-4-oxo-1-(sulfooxy)azetidin-3-yl)amino)-2-oxoethylidene)amino)oxy)propanoic acid] | 1.563 |  | 6.25
CC1(C)[C@H](NC(=O)/C(=N\O[C@](C)(C(=O)O)[C@H]2CCc3cc(C(=N)N[C@H]4C[C@](N)(CC(O)CO)C4)ccc3O2)c2csc(N)n2)C(=O)N1OS(=O)(=O)O (stereo partly drawn) [Compound 96, (S)-2-((R)-6-(N-((1R,3S)-3-amino-3-((S)-2,3-dihydroxypropyl)cyclobutyl)-carbamimidoyl)chroman-2-yl)-2-((((Z)-1-(2-aminothiazol-4-yl)-2-(((S)-2,2-dimethyl-4-oxo-1-(sulfooxy)azetidin-3-yl)amino)-2-oxoethylidene)amino)oxy)propanoic acid] | 1.563 | 6.25 | 
COCc1c(C(=N)N[C@H]2C[C@@H](N)C2)ccc2c1CC[C@H]([C@](C)(O/N=C(\C(=O)N[C@@H]1C(=O)N(OS(=O)(=O)O)C1(C)C)c1csc(N)n1)C(=O)O)O2 [Compound 124, (S)-2-((R)-6-(N-((1s,3S)-3-aminocyclobutyl)carbamimidoyl)-5-(methoxymethyl)chroman-2-yl)-2-((((Z)-1-(2-aminothiazol-4-yl)-2-(((S)-2,2-dimethyl-4-oxo-1-(sulfooxy)azetidin-3-yl)amino)-2-oxoethylidene)amino)oxy)propanoic acid] | 3.125 |  | 50
COC[C@]1(NC(=N)c2ccc3c(c2)CC[C@H]([C@](C)(O/N=C(\C(=O)N[C@@H]2C(=O)N(OS(=O)(=O)O)C2(C)C)c2csc(N)n2)C(=O)O)O3)CC[C@@H](N)CC1 [Compound 126, (S)-2-((R)-6-(N-((1s,4S)-4-amino-1-(methoxymethyl)cyclohexyl)carbamimidoyl)chroman-2-yl)-2-((((Z)-1-(2-aminothiazol-4-yl)-2-(((S)-2,2-dimethyl-4-oxo-1-(sulfooxy)azetidin-3-yl)amino)-2-oxoethylidene)amino)oxy)propanoic acid] | 6.25 |  | 25
COC[C@]1(NC(=N)c2ccc3c(c2)CC[C@H]([C@](C)(O/N=C(\C(=O)N[C@@H]2C(=O)N(OS(=O)(=O)O)C2(C)C)c2csc(N)n2)C(=O)O)O3)CC[C@H](N)CC1 [Compound 127, (S)-2-((R)-6-(N-((1r,4R)-4-amino-1-(methoxymethyl)cyclohexyl)carbamimidoyl)chroman-2-yl)-2-((((Z)-1-(2-aminothiazol-4-yl)-2-(((S)-2,2-dimethyl-4-oxo-1-(sulfooxy)azetidin-3-yl)amino)-2-oxoethylidene)amino)oxy)propanoic acid] | 3.125 |  | 
